Results as given in ChEMBL document CHEMBL1136292, “Synthesis and AMPA receptor antagonistic activity of a novel class of quinoxalinecarboxylic acid with a substituted phenyl group at the C-7 position” (Bioorg Med Chem Lett, 2003).
Active and inactive are the calls of the source. No cut-off for these calls is given here.

Tests used:
Rattus norvegicus [1] = assay: Neuroprotective effect in rat after iv administration at a dose of 30 mg/kg/h for 4 h; assay type: functional
[2] = molecular target: Glutamate receptor ionotropic, AMPA (Rattus norvegicus, UniProt P19490+P19491+P19492+P19493); assay: biochemical
Description: Binding affinity for ionotropic glutamate receptor AMPA using [3H]AMPA as radioligand, bound to synaptic membranes prepared from rat cerebral cortex

Rattus norvegicus [3] = species: Rattus norvegicus; assay: In vitro inhibitory effect on AMPA-induced DC potential in rat cortical slices; active; assay type: functional
Rattus norvegicus [4] = assay: Neuroprotective effect in rat after iv administration at a dose of 2.5 mg/kg/h for 4 h; assay type: functional
Rattus norvegicus [5] = assay: Neuroprotective effect in rat after iv administration at a dose of 15 mg/kg/h for 4 h; assay type: functional
Rattus norvegicus [6] = assay: Neuroprotective effect in rat after iv administration at a dose of 20 mg/kg/h for 4 h; assay type: functional
Rattus norvegicus [7] = assay: Neuroprotective effect in rat after iv administration at a dose of 5 mg/kg/h for 4 h; assay type: functional

Structure (SMILES)	Ki [2] [nM]	also measured
NS(=O)(=O)c1cccc2c1c([N+](=O)[O-])cc1nc(O)c(O)nc12 [NBQX]		Activity (Rattus norvegicus [1]): 2.3
Cc1cn(-c2cc3nc(C(=O)O)c(O)nc3cc2[N+](=O)[O-])cn1	1300	
O=C(NCc1ccccc1)OCc1cn(-c2cc3nc(C(=O)O)c(=O)[nH]c3cc2[N+](=O)[O-])cn1	67	
O=C(O)c1nc2cc(N3CCCCC3)c([N+](=O)[O-])cc2nc1O	3800	
O=C(Nc1ccc(C(=O)O)cc1)OCc1cn(-c2cc3nc(C(=O)O)c(O)nc3cc2[N+](=O)[O-])cn1		activity call (active/inactive) (Rattus norvegicus [3]): Active; Activity (Rattus norvegicus [4]): 3
O=C(Nc1ccccc1Br)OCc1cn(-c2cc3nc(C(=O)O)c(O)nc3cc2[N+](=O)[O-])cn1	30	
O=C(Nc1cccc(Br)c1)OCc1cn(-c2cc3nc(C(=O)O)c(O)nc3cc2[N+](=O)[O-])cn1	16	
O=C(O)c1nc2cc(N3CCC(O)CC3)c([N+](=O)[O-])cc2nc1O	2500	
O=C(Nc1ccc(Cl)cc1)OCc1cn(-c2cc3nc(C(=O)O)c(O)nc3cc2[N+](=O)[O-])cn1	30	
Cc1cccc(NC(=O)OCc2cn(-c3cc4nc(C(=O)O)c(O)nc4cc3[N+](=O)[O-])cn2)c1	22	
O=c1[nH]c2cc(-n3ccnc3)c([N+](=O)[O-])cc2[nH]c1=O [YM-90K]	100	Activity (Rattus norvegicus [5]): 2.8; activity call (active/inactive) (Rattus norvegicus [3]): Active
O=C(O)c1nc2cc(N3CCOCC3)c([N+](=O)[O-])cc2nc1O	2000	
O=C(Nc1cccc(Cl)c1)OCc1cn(-c2cc3nc(C(=O)O)c(O)nc3cc2[N+](=O)[O-])cn1	18	
O=C(Nc1ccccc1C(=O)O)OCc1cn(-c2cc3nc(C(=O)O)c(=O)[nH]c3cc2[N+](=O)[O-])cn1	> 900	
Cc1ccc(NC(=O)OCc2cn(-c3cc4nc(C(=O)O)c(O)nc4cc3[N+](=O)[O-])cn2)cc1	30	
O=C(Nc1ccccc1)OCc1cn(-c2cc3nc(C(=O)O)c(O)nc3cc2[N+](=O)[O-])cn1	86	
O=C(O)c1nc2cc(-n3ccnc3)c([N+](=O)[O-])cc2nc1O		activity call (active/inactive) (Rattus norvegicus [3]): Active; Activity (Rattus norvegicus [6]): 0.2
O=C(NCc1cccc(Br)c1)OCc1cn(-c2cc3nc(C(=O)O)c(O)nc3cc2[N+](=O)[O-])cn1	100	

Structure (SMILES)	Ki [2] [nM]	also measured
O=C(O)c1nc2cc(-n3ccnc3)c([N+](=O)[O-])cc2[nH]c1=O	560	
CN(C)c1cc2nc(C(=O)O)c(O)nc2cc1[N+](=O)[O-]	910	
O=C(O)Cn1c(=O)c(=O)[nH]c2cc([N+](=O)[O-])c(-n3ccnc3)cc21 [ZONAMPANEL]	62	activity call (active/inactive) (Rattus norvegicus [3]): Active; Activity (Rattus norvegicus [1]): 0.5
O=C(Nc1ccccc1)OCc1cn(-c2cc3nc(C(=O)O)c(O)nc3cc2[N+](=O)[O-])ccc1=O	170	
O=C(O)c1nc2cc(F)c([N+](=O)[O-])cc2nc1O	2000	
Cc1ccccc1NC(=O)OCc1cn(-c2cc3nc(C(=O)O)c(O)nc3cc2[N+](=O)[O-])cn1	16	
O=C(Nc1ccccc1Cl)OCc1cn(-c2cc3nc(C(=O)O)c(O)nc3cc2[N+](=O)[O-])cn1	20	
O=C(Nc1cccc(C(=O)O)c1)OCc1cn(-c2cc3nc(C(=O)O)c(O)nc3cc2[N+](=O)[O-])cn1	27	activity call (active/inactive) (Rattus norvegicus [3]): Active; Activity (Rattus norvegicus [7]): 2.3
Cc1nccn1-c1cc2nc(C(=O)O)c(O)nc2cc1[N+](=O)[O-]	> 10000	
O=C(Nc1ccc(C(=O)O)cc1)OCc1cn(-c2cc3nc(C(=O)O)c(=O)[nH]c3cc2[N+](=O)[O-])cn1	22	
O=C(NCc1ccc(Br)cc1)OCc1cn(-c2cc3nc(C(=O)O)c(O)nc3cc2[N+](=O)[O-])cn1	47	
O=C(Nc1ccc(C(=O)O)cc1)OCCc1cn(-c2cc3nc(C(=O)O)c(=O)[nH]c3cc2[N+](=O)[O-])cn1	270	
O=C(O)c1nc2cc(-n3ccc(=O)cc3)c([N+](=O)[O-])cc2nc1O	330	
O=C(Nc1ccc(Br)cc1)OCc1cn(-c2cc3nc(C(=O)O)c(=O)[nH]c3cc2[N+](=O)[O-])cn1	32	
O=C(O)c1nc2cc(-n3cnc(CO)c3)c([N+](=O)[O-])cc2[nH]c1=O	2600	
O=C(O)Cc1cn(-c2cc3nc(C(=O)O)c(O)nc3cc2[N+](=O)[O-])cn1	530	
O=C(NCc1ccccc1Br)OCc1cn(-c2cc3nc(C(=O)O)c(O)nc3cc2[N+](=O)[O-])cn1	29	
